Measured values published in article PMC10759558 (European journal of medicinal chemistry, 2023).

System: HIVLAI
Assay: Antiviral activity in MT-2 human-T-lymphoid cells exposed to HIVLAI
Assay type: cell-based, HIV-1
Conditions: for antiviral activity (in words): MT-2 cells exposed to HIVLAI

Structure (SMILES)	fold reduction in antiviral activity over compound 5c (MT-2 cells, HIVLAI, compared with 5c) [fold]	antiviral activity (in words)
Cc1ccc(C(=O)N[C@@H](Cc2cc(F)cc(F)c2)[C@H](O)CN(CC(C)C)S(=O)(=O)c2ccc(N)cc2)cc1Nc1nccc(-c2cccnc2)n1 [5d, N-((2S,3R)-4-((4-amino-N-isobutylphenyl)sulfonamido)-1-(3,5-difluorophenyl)-3-hydroxybutan-2-yl)-4-methyl-3-((4-(pyridin-3-yl)pyrimidin-2-yl)amino)benzamide]	3	
COc1ccc(S(=O)(=O)N(CC(C)C)C[C@@H](O)[C@H](Cc2ccccc2)NC(=O)c2cccc(Nc3nc(-c4cccnc4)cs3)c2C)cc1 [5f, N-((2S,3R)-3-hydroxy-4-((N-isobutyl-4-methoxyphenyl)sulfonamido)-1-phenylbutan-2-yl)-2-methyl-3-((4-(pyridin-3-yl)thiazol-2-yl)amino)benzamide]		did not exhibit any appreciable antiviral activity
COc1ccc(S(=O)(=O)N(CC(C)C)C[C@@H](O)[C@H](Cc2ccccc2)NC(=O)c2ccc(C)c(Nc3nc(C)cs3)c2)cc1 [5j, N-((2S,3R)-3-hydroxy-4-((N-isobutyl-4-methoxyphenyl)sulfonamido)-1-phenylbutan-2-yl)-4-methyl-3-((4-methylthiazol-2-yl)amino)benzamide]		did not show any appreciable antiviral activity
